Like-named read-outs stand apart in the source and are kept apart here.
How the values were obtained:
EpnF [1] = biological target: T1, EpnF (Streptomyces hygroscopicus, UniProt V5RMU9); assay: Enzyme kinetic analysis by SPE-MS/MS assay; assay type: biochemical; conditions: quantitative SPE-MS/MS assay
Procedure: SPE-MS/MS analyses were carried out on an Agilent RapidFire 365 High-Throughput Mass Spectrometry System with 6495 triple quadrupole mass spectrometer. Determination of initial velocity: EpnF stock at 100 μM was diluted 10-fold in EpnF Buffer to a 10 μM working solution, which was further diluted to 8 concentrations (10-0.005 μM) in EpnF Buffer (intermediate volume 1350 μL, concentrations calculated for 1500 μL theoretical final volume corresponding to addition of substrate solutions below). The 8 EpnF enzyme dilutions were aliquoted (90 μL) into the corresponding 8 tubes of PCR tube strips (12 strips, one per time point; Thermo Scientific, AB-2000). The β-ketoacid 11 (20 mM in EtOH) was diluted to 10 μM in EpnF Buffer, then 10 μL of this solution was added to each of the tubes (1 μM final concentration, 100 μL final volume) to initiate the reaction. Samples were incubated in a heated shaker at 37° C. and 225 rpm for up to 120 min, and one tube strip was removed at each time point. Each tube was quenched with 5% formic acid in EpnF Buffer (100 μL), pipetted vigorously, and flash frozen on dry ice. Samples were thawed then centrifuged to precipitate protein and transferred to a conical-bottom 96-well plate (Thermo Scientific/Nunc, 249944) for SPE-MS/MS analysis. Measurement of Km and Vmax: Using the data from the initial velocity experiments above, an appropriate EpnF enzyme concentration was selected for each β-ketoacid 11 at which the rate of conversion to the epoxyketone 12 remained linear at 10 min (0.50 μM for 11n and 0.05 μM for all other substrates). Each substrate (20 mM in EtOH) was diluted to 1 mM in EpnF Buffer, then diluted to 8 concentrations (100-0.5 μM) in EpnF Buffer (intermediate volume 1350 μL, concentrations calculated for 1500 μL theoretical volume corresponding to addition of enzyme solutions below). The 8 substrate dilutions were aliquoted (90 μL) into the corresponding 8 tubes of PCR tube strips (12 strips, one per time point; Thermo Scientific, AB-2000). The EpnF enzyme stock solution was diluted in EpnF Buffer to the appropriate concentration for each substrate, then 10 μL of this solution was added to each of the tubes (100 μL final volume) to initiate the reaction. For the 0-min time point, 5% formic acid in EpnF Buffer was added to the β-ketoacid substrate before addition of the enzyme. Samples were incubated in a heated shaker at 37° C. and 225 rpm for up to 10 min, and one tube strip was removed at each time point. Each tube was quenched by addition of 5% formic acid in EpnF Buffer (100 μL), pipetted vigorously, and flash frozen on dry ice. Samples were thawed then centrifuged to precipitate proteins and the supernatants were transferred to a conical-bottom 96-well plate (Thermo Scientific/Nunc, 249944) for SPE-MS/MS analysis. Km and Vmax values for each substrate were calculated by Michaelis-Menten analysis. To obtain a quantitative assessment of EpnF substrate specificity, we developed a kinetic assay (10 min) using SPE-MS/MS (solid-phase extraction/triple quadrupole mass spectrometry; Agilent RapidFire 365 with 6495 MS) to enable direct detection of both substrates and products.

EpnF [2] = biological target: T1, EpnF; assay: Semiquantitative epoxide capture assay (EpnF-catalyzed epoxyketone formation); assay type: biochemical; conditions: 1 μM EpnF; for EpnF-catalyzed conversion to epoxyketone (epoxide capture): 240 μM β-ketoacid substrate (FIG. 2); for EpnF-catalyzed formation of epoxyketone (epoxide capture): 250 μM β-ketoacid substrate, 1 h, positive control 11n (FIG. 1)
Procedure: Recombinant EpnF was diluted to 1 μM in 180 μL EpnF Buffer in an 1.5 mL Eppendorf tube. The β-ketoacid 11 was added at various concentrations to a total reaction volume of 200 μL. The mixture was incubated in a heated shaker at 37° C. and 225 rpm for 1 h. The reaction mixture (30 μL×3 technical replicates) was transferred to a white, opaque 96-well plate (PerkinElmer, OptiPlate-96). Each plate also contained 30 μL×3 technical replicates of EpnF Buffer as a negative control. To each well, 15 μL of 125 mM nicotinamide in EpnF Buffer was added and mixed by pipetting. The plate was sealed with an adhesive foil cover (VWR Adhesive Foil for Microplates) and heated in an oven at 80° C. for 1 h. The plate was cooled to rt and 25 μL of 15% (v/v) acetophenone in EtOH and 25 μL of 1 M potassium hydroxide in EtOH were added to each well, then mixed by pipetting. The plate was cooled on ice for 10 min, then 125 μL formic acid was added to each well. The plate was resealed and heated in an oven at 100° C. for 5 min. The plate was cooled on ice for 5-10 min, then analyzed (λex 370 nm, λem 430 nm) on a fluorescence plate reader (Molecular Devices Spectramax M3).
We adapted a reported epoxide capture assay [Nelis, H. J. C. F.; Sinsheimer, J. E. (1981) A sensitive fluorimetric procedure for the determination of aliphatic epoxides under physiological conditions. Anal. Biochem. 115, 151-157.] to 96-well plate format to detect formation of the epoxyketone products semiquantitatively. Each β-ketoacid substrate 11 was incubated with recombinant, purified EpnF (1 h), then reacted with nicotinamide and acetophenone (1 h) to form a fluorescent 1,6-naphthyridinone 24. The fluorescent signals were normalized to that resulting from the known substrate β-ketoacid 11n as a positive control [Zabala, D.; Cartwright, J. W.; Roberts, D. M.; Law, B. J. C.; Song, L.; Samborskyy, M.; Leadlay, P. F.; Micklefield, J.; Challis, G. L. (2016) A flavin-dependent decarboxylase-dehydrogenase-monooxygenase assembles the warhead of α,β-epoxyketone proteasome inhibitors. J. Am. Chem. Soc. 138, 4342-4345.].

EL4 mouse lymphoma = assay: Cytotoxicity of epoxyketones, CellTitre-Glo, 48 h; assay type: cell-based; conditions: EL4, 48 h
Procedure: (§1) Cytotoxicity Assays. Cancer cell lines (ATCC: U266 multiple myeloma, EL4 mouse lymphoma, Raji B-cell lymphoma) were cultured in Roswell Park Memorial Institute (RPMI) medium supplemented with 10% fetal bovine serum (FBS), 2 mM L-glutamine, 100 IU/mL penicillin, 100 μg/mL nonessential amino acids, 1 mM sodium pyruvate, and 57 μM β-mercaptoethanol. Cells (90 μL) were seeded in the inner 60 wells of an opaque-wall, clear flat-bottom 96-well plate (Corning/Falcon, 351177) at 20,000 cells per well. The outer perimeter wells were filled with 200 μL PBS to reduce evaporation in the central 60 wells. Epoxyketones 12 (20 mM in DMSO) were diluted in RPMI media to 1 mM (5% DMSO final concentration). Each epoxyketone was then diluted log-fold into 10 concentrations with 5% DMSO in RPMI. Each epoxyketone solution (10 μL) was added to the cells for a 0.5% DMSO final concentration across all wells and final epoxyketone concentrations of 100-0.005 μM. Negative control wells were treated with 10 μL of 5% DMSO in RPMI. Cells were incubated with compounds for 48 h, then cytotoxicity was measured with the CellTitre-Glo assay (Promega G9241).

U266 multiple myeloma = assay: Cytotoxicity of epoxyketones, CellTitre-Glo, 48 h; assay type: cell-based; conditions: Homo sapiens, U-266, U266, 48 h
Procedure: as §1

Raji B-cell lymphoma = assay: Cytotoxicity of epoxyketones, CellTitre-Glo, 48 h; assay type: cell-based; conditions: Homo sapiens
Procedure: as §1

[3] = Stability of β-ketoacid substrates (decarboxylation, 1H-NMR or SPE-MS/MS); assay type: physicochemical
Procedure: To assess rates of decarboxylation under conditions relevant to storage, biochemical assays, and cellular assays, we investigated the stability of eponemycin-based β-ketoacids 11a and 11c under a variety of conditions as shown in below Table C.
For samples stored neat, β-ketoacid 11 (lyophilized powder) was aliquoted into 1.5-2 mg samples in glass vials and placed under Ar. Samples were stored on the bench top (20-25° C.), in at 4° C. refrigerator or in a −20° C. freezer. At each time point, an entire aliquot was dissolved in CD3OD (600 μL) analyzed by ^1H-NMR for decarboxylation to the corresponding isopropyl ketone byproduct 22. The degree of decarboxylation was determined by comparing integrations of two singlet peaks at 1.40 and 1.33 ppm, arising from the α,α-dimethyl groups in the β-ketoacid 11, to two doublet peaks at 1.09 and 1.06 ppm, arising from the isopropyl methyl groups in the decarboxylation product 22. A septuplet corresponding to the methine proton of the isopropyl group was also observed at 2.91 ppm.
For samples stored in PBS, aliquots of β-ketoacid 11 were dissolved in deuterated PBS (600 μL) and incubated in a 37° C. shaking incubator. At each time point, one aliquot was removed and analyzed by ^1H-NMR as above. NMR changes observed in deuterated PBS were similar to those observed in CD3OD above.
For samples stored in RPMI, β-ketoacid 11 (lyophilized powder) was dissolved in EtOH to a working stock concentration of 20 mM. The sample was diluted in RPMI to 100 μM (1000 μL) and incubated at 37° C. At each time point, an aliquot (50 μL) was removed from the master sample, transferred to a 96-well plate, quenched with 4 vol MeOH, centrifuged at 4,000 g to precipitate debris, and immediately analyzed by SPE-MS/MS to quantitate β-ketoacid 11 remaining.

T1 sequence (V5RMU9 entry or part of it): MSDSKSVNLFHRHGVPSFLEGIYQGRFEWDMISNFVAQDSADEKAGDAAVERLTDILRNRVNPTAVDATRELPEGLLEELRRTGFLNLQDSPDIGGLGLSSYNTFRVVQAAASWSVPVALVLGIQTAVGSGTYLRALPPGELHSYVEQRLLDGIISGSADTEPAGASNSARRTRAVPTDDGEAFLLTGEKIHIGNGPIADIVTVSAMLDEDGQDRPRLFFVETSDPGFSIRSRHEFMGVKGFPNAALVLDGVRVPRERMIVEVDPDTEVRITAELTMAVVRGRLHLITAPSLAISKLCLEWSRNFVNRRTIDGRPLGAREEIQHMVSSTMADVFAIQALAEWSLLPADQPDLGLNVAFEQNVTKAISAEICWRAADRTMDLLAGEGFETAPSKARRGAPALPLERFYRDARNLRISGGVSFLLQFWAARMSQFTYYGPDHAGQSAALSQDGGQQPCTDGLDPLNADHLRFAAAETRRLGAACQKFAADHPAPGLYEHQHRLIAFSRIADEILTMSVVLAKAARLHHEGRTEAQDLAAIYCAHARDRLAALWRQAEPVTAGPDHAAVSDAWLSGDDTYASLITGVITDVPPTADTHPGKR

SMILES | EpnF-catalyzed conversion to epoxyketone (epoxide capture) (EpnF [2]) | IC50 (EL4 mouse lymphoma; read-out: IC50) | IC50 (EL4 mouse lymphoma; read-out: log IC50 (converted)) | IC50 (U266 multiple myeloma; read-out: IC50) | IC50 (U266 multiple myeloma; read-out: log IC50 (converted)) | IC50 (Raji B-cell lymphoma; read-out: IC50) | IC50 (Raji B-cell lymphoma; read-out: log IC50 (converted)) | further results
CC(C)CCCCC(=O)N[C@H](C(=O)N[C@@H](CC(C)C)C(=O)C(C)(C)C(=O)O)C(C)C [Compound 11k, (4S)-2,2,6-Trimethyl-4-[(2S)-3-methyl-2-(6-methylheptanamido)butanamido]-3-oxoheptanoic acid] | tolerated to a lesser degree |  |  |  |  |  |  | efficiency of EpnF-catalyzed conversion compared to parent substrate 11a (in words) (EpnF [1]): low conversion
CC(C)CCCCC(=O)N[C@@H](CO)C(=O)N[C@@H](CC(C)C)C(=O)C(C)C(=O)O (stereo partly shown) [Compound 11e] | not tolerated |  |  |  |  |  |  | 
C=C(C)C[C@H](NC(=O)[C@H](CO)NC(=O)CCCCC(C)C)C(=O)C(C)(CO)C(=O)O (single isomer, unassigned) [Compound 11d] |  |  |  |  |  |  |  | EpnF-catalyzed formation of epoxyketone (epoxide capture) (EpnF [2]): no epoxide formation was detected
CCCC(=O)N[C@@H](CO)C(=O)N[C@@H](CC(C)C)C(=O)[C@@]1(C)CO1 [Compound 12n] |  | 5.7 µM | 5.37 µM | 4.8 µM | 4.79 µM | 5.4 µM | 5.37 µM | 
CC(C)CCCCC(=O)N[C@@H](CO)C(=O)N[C@@H](C)C(=O)C(C)(C)C(=O)O [Compound 11f, (4S)-4-[(2S)-3-Hydroxy-2-(6-methylheptanamido)propanamido]-2,2-dimethyl-3-oxopentanoic acid] | could not be truncated to alanine |  |  |  |  |  |  | 
CC(C)CCCCC(=O)N[C@@H](CO)C(=O)N[C@@H](CC(C)C)C(=O)C(C)(CO)C(=O)O (single isomer, unassigned) [Compound 11c] |  |  |  |  |  |  |  | half-life ([3]; deuterated PBS, PBS, 37° C.): 15 min; stability / rate of decarboxylation (in words) ([3]; neat at low temperatures, buffer or media at 37° C.): considerably faster; EpnF-catalyzed formation of epoxyketone (epoxide capture) (EpnF [2]): no epoxide formation was detected
CC(C)CCCCC(=O)N[C@@H](C)C(=O)N[C@@H](CC(C)C)C(=O)[C@@]1(C)CO1 [Compound 12j, 6-Methyl-N-[(1S)-1-{[(2S)-4-methyl-1-[(2R)-2-methyloxiran-2-yl]-1-oxopentan-2-yl]carbamoyl}ethyl]heptanamide] |  | 3.2 µM | 3.02 µM | 2.2 µM | 2.19 µM | 1.9 µM | 1.91 µM | 
CC(C)CCCCC(=O)N[C@H](C(=O)N[C@@H](CC(C)C)C(=O)[C@@]1(C)CO1)[C@@H](C)O [Compound 12l, N-[(1S)-2-Hydroxy-1-{[(2S)-4-methyl-1-[(2R)-2-methyloxiran-2-yl]-1-oxopentan-2-yl]carbamoyl}propyl]-6-methylheptanamide] |  | 3.7 µM | 3.55 µM | 2.1 µM | 2.14 µM | 2.1 µM | 2.09 µM | 
CC(C)CCCCC(=O)N[C@@H](C)C(=O)N[C@@H](CC(C)C)C(=O)C(C)(C)C(=O)O [Compound 11j, (4S)-2,2,6-Trimethyl-4-[(2S)-2-(6-methylheptanamido)propanamido]-3-oxoheptanoic acid] | tolerated |  |  |  |  |  |  | 
CC(C)CCCCC(=O)N[C@@H](Cc1ccccc1)C(=O)N[C@@H](CC(C)C)C(=O)C(C)(C)C(=O)O [Compound 11m, (4S)-2,2,6-Trimethyl-4-[(2S)-2-(6-methylheptanamido)-3-phenylpropanamido]-3-oxoheptanoic acid] | not accepted |  |  |  |  |  |  | 
CC(C)C[C@H](NC(=O)[C@H](CO)NC(=O)c1ccccc1)C(=O)[C@@]1(C)CO1 [Compound 12o, (2S)-3-Hydroxy-N-[(2S)-4-methyl-1-[(2R)-2-methyloxiran-2-yl]-1-oxopentan-2-yl]-2-(phenylformamido)propenamide] |  | 7.2 µM | 7.24 µM | 2.7 µM | 2.69 µM | 3.6 µM | 3.47 µM | 

Reference: patent US20260234116A1, “CYTOTOXIC EPOXYKETONE COMPOUNDS, PRECURSORS, COMPOSITIONS, AND METHODS OF USE” (Memorial Sloan-Kettering Cancer Center, priority 2023, published 2026)
